Test results as given in patent US7163944B2, “Cyclic diamine compound and pharmaceutical containing the same” (Kowa Co., Ltd., priority 2004, dated 2007).

Experiments:
ACAT = biological target: T1, ACAT (Mus musculus, UniProt Q61263); assay: Cholesterol ester accumulation inhibitory action (ACAT inhibitory activity) in J774 cells; assay type: cell-based; conditions: 25-hydroxycholesterol 10 μg/ml, 18 hours incubation, concentration inhibiting 50% of CE production, N=4
T1 construct: endogenous in cells; host or cells: J774 cells
T1 sequence (Q61263 1-540): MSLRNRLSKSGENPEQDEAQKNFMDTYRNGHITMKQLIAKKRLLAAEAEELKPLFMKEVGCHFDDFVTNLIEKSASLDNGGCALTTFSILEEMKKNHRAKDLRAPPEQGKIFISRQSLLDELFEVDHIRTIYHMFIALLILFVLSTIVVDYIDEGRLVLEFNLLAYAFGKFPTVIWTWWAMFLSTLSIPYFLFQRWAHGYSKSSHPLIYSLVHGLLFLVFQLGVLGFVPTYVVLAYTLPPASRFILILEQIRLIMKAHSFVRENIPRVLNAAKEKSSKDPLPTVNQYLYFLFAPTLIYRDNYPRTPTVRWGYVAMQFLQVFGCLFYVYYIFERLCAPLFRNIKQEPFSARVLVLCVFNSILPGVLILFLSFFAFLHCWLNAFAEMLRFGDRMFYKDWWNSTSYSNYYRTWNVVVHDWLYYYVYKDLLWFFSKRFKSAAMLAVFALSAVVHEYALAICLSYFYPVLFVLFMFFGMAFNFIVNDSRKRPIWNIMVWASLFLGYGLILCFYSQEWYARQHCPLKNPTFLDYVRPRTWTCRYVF
Procedure: Test 1: Cholesterol Ester Accumulation Inhibitory Action (ACAT Inhibitory Activity) in J774 Cells.
J774 cells (2×10^5 cells/well) were seeded on a 24-well plate and incubated for 24 hours in 500 μL of DMEM (10% FBS). After replacement with a new medium, 25-hydroxycholesterol (10 μg/ml) and a test compound (final concentration: 0, 10^−9 to 10^−5 mol/L) were added, followed by incubation for 18 hours. After washing with 0.9% NaCl, the lipid was extracted with 250 μL of hexane-isopropanol (3:2) and then extracted with 250 μL of hexane-isopropanol (3:2) again. After the extracts were combined and distilled, the amount of cholesterol ester (CE) thus obtained was determined by the fluorescent enzyme assay. The cells from which the lipid was extracted were subjected to protein assay (micro BCA assay) and the amount of CE per mg of protein was determined. From a CE production ratio of the test compound to the control, IC50 (concentration of the compound inhibiting 50% of CE production) was calculated at N=4.

[1] = Metabolic stability in human liver microsomes; assay type: in vitro ADME
Procedure: Test 2: Test on Metabolic Stability in Human Liver Microsomes
In accordance with the below-described Table 2, an NRS (NADPH regenerating system) solution and 16% human serum albumin were added to a 0.1 mol/L phosphate buffer (containing 3.3 mM magnesium chloride) (pH 7.4), followed by the addition of a solution of a test compound (100 μM) in acetonitrile (0.01 mL). After preincubation in a warm bath of 37° C. for 5 minutes, human liver microsomes (POOLED HUMAN LIVER MICROSOMES, Lot. No. 20, product of GENETEST) were added and a reaction was effected for 30 minutes in a warm bath of 37° C. A 0.25 mL portion of the reaction mixture was collected 0 and 30 minutes after the initiation of the reaction, followed by extraction. The amount of the test compound was measured by HPLC. A remaining ratio of the unchanged compound after 30 minutes was calculated based on the following equation: (peak area after 30 minutes/peak area at 0 minute)×100.
To each sample were added 1.0 mL of a glycine buffer (pH 10), 0.1 mL of an internal standard substance and 5.0 mL of tert-butyl methyl ether, followed by shaking for 10 minutes and centrifugal separation at 2500 rpm for 10 minutes to collect the organic layer.

[2] = system: lipid-loaded F1B hamster model; assay: Aorta lipid deposition suppression test, lipid-loaded F1B hamster model; assay type: in vivo; conditions: Bio F1B male hamsters, fat-rich diet 10 weeks, 1 mg/kg orally twice a day, aorta Oil red O area vs control group
Procedure: Test 3: Aorta Lipid Deposition Suppression Test
In accordance with the method of Nicolosi, et al., a test using an animal model of arteriosclerosis, that is, a lipid-loaded F1B hamster model was made and a lipid deposition area in the aortic arch was measured to investigate the effects of the test compound for suppressing lipid deposition [refer to Nicolosi R J, et al., Atherosclerosis 137, 77–85(1988)].
Bio F1B male hamsters purchased from Charles River Japan, Inc. were divided at random into three groups (a compound (1) administered group, a comparative compound (B) administered group and a medicament non-administered group (control group)), each group consisting of 6 hamsters. […] After 10 weeks, an area of the lipid deposited in the aorta was measured by an image analyser. […]
An 18-G injection needle was inserted into the cardiac apex, followed by perfusion with physiological saline (120 mmHg) for about 5 minutes, and then, with a 4% paraformaldehyde solution (120 mmHg) for about 5 minutes. […] The image was scanned into a computer and the area of the portion stained with Oil red 0 and the area of the lumen surface were measured using an image analyser software (“Win Roof”, product of Mitani Shoji). In each case of each group, a ratio of the area of the portion stained with Oil Red O to the lumen surface area was calculated and it was designated as an aorta lipid deposition ratio. […]

- IC50 (ACAT): 49 nM
- remaining ratio of the unchanged compound after 30 minutes ([1]; pooled human liver microsomes, 37° C., 30 minutes, NADPH regenerating system, human serum albumin, HPLC): 38%
- metabolic resistance in human liver microsomes relative to compound (B) ([1]; times higher than compound (B)): about 40 times
- melting point: 176 to 177 °C
Compound: O=C(CN1CCN(CCSc2nc3cccc(C(F)(F)F)c3o2)CC1)Nc1c(C(F)(F)F)cc(O)cc1C(F)(F)F [compound (1), 2-[4-[2-(7-trifluoromethylbenzoxazol-2-ylthio)ethyl]piperazin-1-yl]-N-[4-hydroxy-2,6-bis(trifluoromethyl)phenyl]acetamide]
- lipid deposition suppression ratio [2]: 43%
